Patent publication US11413278B2, “Compounds and methods for promoting stress resistance” (priority 2015, dated 2022)
“Also recorded” adds a separate entry of the source. Like-named read-outs stand apart in the source and are kept apart here.

Columns and labels:
Type in all cases: cell-based, human
NRF2 = test: in vitro; details: for NRF2-dependency for H2O2-resistance, at 10 uM - with H2O2, 2nd experiment: experiment 2 (2nd)
FOXO3 = test: qPCR analysis of FOXO3-regulated genes; details: for fold induction at 10 µM: Homo sapiens; for K = Sestrin induction: score
How it was run: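 WI-38 cells treated with compound at 10 μM for 24 h, followed by Cells-to-Ct RT-qPCR of FOXO3 target genes normalised to B2M, PPIA and GAPDH. FOXO3 or NRF2 dependence tested by prior 10 nM siRNA knockdown (36 h transfection, compound added ~24 h after replating).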

mTOR = mTOR inhibition (RPS6 phosphorylation status), In-Cell Western
How it was run: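 WI-38 cells exposed to compounds at 5, 10 and 20 μM for 24 hrs. Fixed cells co-stained overnight at 4° C with anti-RPS and anti-pRPS6 (Ser-235/236) antibodies, then DyLight 680/800 secondaries. Phospho-RPS6 relative to total RPS6 read by near-infrared In-Cell Western imaging.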

WI-38 cells = test: Propidium iodide (PI) cell-death imaging upon H2O2 stress; details: for Assay 7: H2O2-resistant, at 10 uM, validated by propidium iodide (PI) cell-death imaging: w/H2O2, 3 hrs/4 hrs/5 hrs, YES/NO; for cytotoxicity at 10 µM: Homo sapiens, WI-38
[1] = WI-38 cells, 10 μM, 24 hrs, n=4, qPCR normalized by B2M, read-out: DDB1 Normalized fold change
[2] = WI-38 cells, 10 μM, 24 hrs, n=4, qPCR normalized by B2M, read-out: GADD45A Normalized fold change
[3] = WI-38 cells, 10 μM, 24 hrs, n=4, qPCR normalized by B2M, read-out: SESN1 Normalized fold change
[4] = qPCR, WI-38 cells, 10 μM, n=4, 24 hrs, normalized by B2M, read-out: CAT Normalized fold change
[5] = qPCR, WI-38 cells, 10 μM, n=4, 24 hrs, normalized by B2M, read-out: SOD2 Normalized fold change
[6] = qPCR, WI-38 cells, 10 μM, n=4, 24 hrs, normalized by B2M, read-out: TXNIP Normalized fold change
[7] = H2O2 3 hrs, 10 uM, n = 6, negative control 5.44% ± 0.79%, read-out: Percentage of propidium iodide-positive dead cells (under H2O2 stress treatment), 3 hrs
[8] = H2O2 4 hrs, 10 uM, n = 6, negative control 16.81% ± 1.42%, read-out: Percentage of propidium iodide-positive dead cells (under H2O2 stress treatment), 4 hrs
[9] = H2O2 5 hrs, 10 uM, n = 6, negative control 22.50% ± 1.53%, read-out: Percentage of propidium iodide-positive dead cells (under H2O2 stress treatment), 5 hrs
[10] = pre-treatment at 10 uM, 3.5 hours of H2O2, DMSO control 27.4% ± 6.5%, */**/*** = reduced by one/two/three standard deviations, read-out: Percentage of propidium iodide-positive dead cells (under H2O2 stress treatment), at 10 uM
[11] = 10 uM, with H2O2, NRF2 knockdown in WI-38 cells, YES = resistance reduced by at least 50%, partial = 25% to 50%
[12] = 24 h, Assay 10(m), at 10 uM, qPCR, read-out: Induction of FOXO3-regulated genes: TXNIP normalized fold-change
[13] = 10 μM, 24 hrs, WI-38 cells, qPCR, normalized to B2M, n = 4, read-out: GADD45A expression, normalized fold change (FOXO3-regulated gene)
[14] = 10 μM, 24 hrs, WI-38 cells, qPCR, normalized to B2M, n = 4, read-out: TXNIP expression, normalized fold change (FOXO3-regulated gene)
[15] = fold change, qPCR, WI-38 cells, 10 μM, 24 hrs, read-out: Summary of effects on FOXO3-regulated genes: GADD45A
[16] = fold change, qPCR, WI-38 cells, 10 μM, 24 hrs, read-out: Summary of effects on FOXO3-regulated genes: TXNIP

SMILES: CC1C(=O)C(C)C(c2cc(Cl)ccc2O)NC1c1cc(Cl)ccc1O (stereo not shown) [O6]
- J = NRF2-dependency for H2O2-resistance (NRF2; score): 0
- J = NRF2-dependency for H2O2-resistance (NRF2; summary score): 0
- E = Potential FOXO3 Activation (FOXO3; 2-point score): 0
- fold induction at 10 µM (FOXO3; [1]): 0.988
- fold induction at 10 µM (FOXO3; [2]): 0.881
- fold induction at 10 µM (FOXO3; [3]): 1.06
- fold induction at 10 µM (FOXO3; [4]): 0.919
- fold induction at 10 µM (FOXO3; [5]): 0.932
- fold induction at 10 µM (FOXO3; [6]): 1.01
- K = Sestrin induction (FOXO3): 0
- E = Potential FOXO3 Activation (FOXO3; summary score): 0
- G = mTOR down-regulation (mTOR; 2-point score): 0
- G = mTOR down-regulation (mTOR; summary score): 0
- Assay 7: H2O2-resistant, at 10 uM, validated by propidium iodide (PI) cell-death imaging (WI-38 cells; 10 uM): YES
- cytotoxicity at 10 µM (WI-38 cells; [7]): 0.8%
- cytotoxicity at 10 µM (WI-38 cells; [8]): 4.92%
- cytotoxicity at 10 µM (WI-38 cells; [9]): 9.82%
- cytotoxicity at 10 µM (WI-38 cells; [10]): 16.8%

SMILES: Nc1ccccc1S(=O)(=O)Nc1cccc2cccnc12 [Gr-3C]
- J = NRF2-dependency for H2O2-resistance (NRF2; score): 0
- J = NRF2-dependency for H2O2-resistance (NRF2; summary score): 0
- E = Potential FOXO3 Activation (FOXO3; 2-point score): 0
- fold induction at 10 µM (FOXO3; 24 h, Assay 10(m), at 10 uM, qPCR, read-out: Induction of FOXO3-regulated genes: DDB1 normalized fold-change): 0.79
- fold induction at 10 µM (FOXO3; 10 μM, 24 hrs, WI-38 cells, qPCR, normalized to B2M, n = 4, read-out: CAT expression, normalized fold change (FOXO3-regulated gene)): 0.87
- fold induction at 10 µM (FOXO3; [1]): 0.985
- fold induction at 10 µM (FOXO3; [2]): 1.16
- fold induction at 10 µM (FOXO3; [3]): 1.09
- fold induction at 10 µM (FOXO3; fold change, qPCR, WI-38 cells, 10 μM, 24 hrs, read-out: Summary of effects on FOXO3-regulated genes: CAT): 0.87
- fold induction at 10 µM (FOXO3; [4]): 0.868
- fold induction at 10 µM (FOXO3; [5]): 1.2
- fold induction at 10 µM (FOXO3; [6]): 1.03
- K = Sestrin induction (FOXO3): 0
- E = Potential FOXO3 Activation (FOXO3; summary score): 0
- G = mTOR down-regulation (mTOR; 2-point score): 0
- G = mTOR down-regulation (mTOR; summary score): 0
- Assay 7: H2O2-resistant, at 10 uM, validated by propidium iodide (PI) cell-death imaging (WI-38 cells; 10 uM): YES
- cytotoxicity at 10 µM (WI-38 cells; [7]): 5.13%
- cytotoxicity at 10 µM (WI-38 cells; [10]): 3.1%

SMILES: O=C(NCc1cccnc1)/C(=C\c1cccc(Oc2ccccc2)c1)S(=O)(=O)c1ccccc1 [Gr-7A]
- Survival of NRF2 siRNA-transfected cells in the absence of H2O2 (NRF2): could reduce the survival
- NRF2-dependency for H2O2-resistance, at 10 uM - with H2O2, 1st experiment (NRF2; 10 uM, experiment 1 (1st), with H2O2): 1st, YES;
- NRF2-dependency for H2O2-resistance, at 10 uM - with H2O2, 2nd experiment (NRF2; 10 uM, with H2O2): 2nd, YES.
- NRF2-dependency for H2O2-resistance, 1st experiment (NRF2; [11]): YES;
- NRF2-dependency for H2O2-resistance, 2nd experiment (NRF2; [11]): YES.
- Assay 17: NRF2-dependency for H2O2-resistance (NRF2; 10 uM, YES/NO): YES
- NRF2-dependency of H2O2-resistance (NRF2 siRNA knockdown) (NRF2; at least 2 of 3 independent experiments): significantly attenuate
- viability of non-stressed cells, reduced by (NRF2; human, 24 h, 10 uM): by 84%)
- J = NRF2-dependency for H2O2-resistance (NRF2; score): 1
- J = NRF2-dependency for H2O2-resistance (NRF2; summary score): 1
- SOD2 expression, normalized fold change (FOXO3-regulated gene) (FOXO3; 10 μM, 24 hrs, WI-38 cells, qPCR, normalized to B2M, n = 4): SOD2 1.78, fold
- E = Potential FOXO3 Activation (FOXO3; 2-point score): 2
- Potential FOXO3 Activation (>=2 target genes induced, by >=1.5-fold) (FOXO3; Assay 11(n)): YES
- fold induction at 10 µM (FOXO3; 24 h, Assay 10(m), at 10 uM, qPCR, read-out: Induction of FOXO3-regulated genes: GADD45A normalized fold-change): 1.91
- fold induction at 10 µM (FOXO3; 24 h, Assay 10(m), at 10 uM, qPCR, read-out: Induction of FOXO3-regulated genes: SOD2 normalized fold-change): 1.78
- fold induction at 10 µM (FOXO3; [12]): 0.12
- fold induction at 10 µM (FOXO3; [13]): 1.91
- fold induction at 10 µM (FOXO3; [14]): 0.12
- fold induction at 10 µM (FOXO3; [1]): 0.979
- fold induction at 10 µM (FOXO3; [2]): 1.91
- fold induction at 10 µM (FOXO3; [3]): 1.14
- fold induction at 10 µM (FOXO3; [15]): 1.91
- fold induction at 10 µM (FOXO3; [16]): 0.12
- fold induction at 10 µM (FOXO3; [4]): 1.15
- fold induction at 10 µM (FOXO3; [5]): 1.78
- fold induction at 10 µM (FOXO3; [6]): 0.12
- Summary of effects on FOXO3-regulated genes: SOD2 (FOXO3; fold change, qPCR, WI-38 cells, 10 μM, 24 hrs): SOD2 1.78,
- K = Sestrin induction (FOXO3): 0
- E = Potential FOXO3 Activation (FOXO3; summary score): 2
- G = mTOR down-regulation (mTOR; 2-point score): 2
- mTOR down-regulation by p-RPS6 assays (mTOR; Assay 14(q), at 5 uM, 10 uM & 20 uM): YES
- Exp. 1, normalized reduction in p-RPS6/RPS6 ratio (mTOR; Exp. 1, In-Cell Western, n=4): ~61% (−), at 20 μM
- Exp. 1, normalized reduction in p-RPS6/RPS6 ratio (mTOR; Exp. 1, at 10 μM, In-Cell Western, n=4): ~60% (−), at 10 μM;
- Exp. 2, normalized reduction in p-RPS6/RPS6 ratio (mTOR; Exp. 2, at 10 μM, In-Cell Western, n=4): ~75% (−), at 10 μM
- Exp. 3, normalized reduction in p-RPS6/RPS6 ratio (mTOR; Exp. 3, In-Cell Western, n=4): ~92% (−), at 20 μM
- Exp. 3, normalized reduction in p-RPS6/RPS6 ratio (mTOR; Exp. 3, at 5 μM, In-Cell Western, n=4): ~50% (−), at 5 μM;
- Exp. 3, normalized reduction in p-RPS6/RPS6 ratio (mTOR; Exp. 3, at 10 μM, In-Cell Western, n=4): ~89% (−), at 10 μM;
- mTOR inhibition (p-RPS6/RPS6), qualitative (mTOR; In-Cell Western): mTOR-inhibiting activities; also recorded: consistently reduced the ratios
- G = mTOR down-regulation (mTOR; summary score): 2
- Assay 7: H2O2-resistant, at 10 uM, validated by propidium iodide (PI) cell-death imaging (WI-38 cells; 10 uM): YES
- cytotoxicity at 10 µM (WI-38 cells; [7]): 2.78%
- cytotoxicity at 10 µM (WI-38 cells; [8]): 2.32%
- cytotoxicity at 10 µM (WI-38 cells; [9]): 3.52%
- cytotoxicity at 10 µM (WI-38 cells; [10]): 9.9%

SMILES: N=C1S/C(=C\c2cn(-c3ccccc3)nc2-c2cccs2)C(=O)N1c1nccs1 [Gr-6C]
- NRF2-dependency for H2O2-resistance, at 10 uM - with H2O2, 2nd experiment (NRF2; 10 uM, with H2O2): 2nd, partial.
- NRF2-dependency for H2O2-resistance, 2nd experiment (NRF2; [11]): partial.
- J = NRF2-dependency for H2O2-resistance (NRF2; score): 0
- J = NRF2-dependency for H2O2-resistance (NRF2; summary score): 0
- E = Potential FOXO3 Activation (FOXO3; 2-point score): 0
- fold induction at 10 µM (FOXO3; 24 h, Assay 10(m), at 10 uM, qPCR, read-out: Induction of FOXO3-regulated genes: SESN1 normalized fold-change): 1.42
- fold induction at 10 µM (FOXO3; [12]): 0.57
- fold induction at 10 µM (FOXO3; [13]): 2.17
- fold induction at 10 µM (FOXO3; 10 μM, 24 hrs, WI-38 cells, qPCR, normalized to B2M, n = 4, read-out: SESN1 expression, normalized fold change (FOXO3-regulated gene)): 1.42
- fold induction at 10 µM (FOXO3; [14]): 0.57
- fold induction at 10 µM (FOXO3; [1]): 1.22
- fold induction at 10 µM (FOXO3; [2]): 2.17
- fold induction at 10 µM (FOXO3; [3]): 1.42
- fold induction at 10 µM (FOXO3; [15]): 2.17
- fold induction at 10 µM (FOXO3; fold change, qPCR, WI-38 cells, 10 μM, 24 hrs, read-out: Summary of effects on FOXO3-regulated genes: SESN1): 1.42
- fold induction at 10 µM (FOXO3; [16]): 0.57
- fold induction at 10 µM (FOXO3; [4]): 1.13
- fold induction at 10 µM (FOXO3; [5]): 1.01
- fold induction at 10 µM (FOXO3; [6]): 0.568
- K = Sestrin induction (FOXO3): 0
- E = Potential FOXO3 Activation (FOXO3; summary score): 0
- G = mTOR down-regulation (mTOR; 2-point score): 0
- G = mTOR down-regulation (mTOR; summary score): 0
- Assay 7: H2O2-resistant, at 10 uM, validated by propidium iodide (PI) cell-death imaging (WI-38 cells; 10 uM): YES
- cytotoxicity at 10 µM (WI-38 cells; [7]): 1.17%
- cytotoxicity at 10 µM (WI-38 cells; [8]): 1.39%
- cytotoxicity at 10 µM (WI-38 cells; [9]): 6.12%
- cytotoxicity at 10 µM (WI-38 cells; [10]): 7.9%
